Reference: ChEMBL document CHEMBL6078658, “Use of imidazo[1,5-a]quinoline scaffold as the pharmacophore in the design of bivalent ligands of central benzodiazepine receptors” (Bioorg Med Chem, 2025)

Tests used:
[1] = target: T1, GABA-A receptor; alpha-2/beta-3/gamma-2 (Homo sapiens, UniProt P18507+P28472+P47869); assay: Displacement of [3H]flumazenil from human recombinant alpha2-beta3-gamma2 GABAA receptors expressed in mouse LTK- cells incubated for 1 hr by liquid scintillation counter analysis; format: cell-based
T1 sequence (P18507 whole entry): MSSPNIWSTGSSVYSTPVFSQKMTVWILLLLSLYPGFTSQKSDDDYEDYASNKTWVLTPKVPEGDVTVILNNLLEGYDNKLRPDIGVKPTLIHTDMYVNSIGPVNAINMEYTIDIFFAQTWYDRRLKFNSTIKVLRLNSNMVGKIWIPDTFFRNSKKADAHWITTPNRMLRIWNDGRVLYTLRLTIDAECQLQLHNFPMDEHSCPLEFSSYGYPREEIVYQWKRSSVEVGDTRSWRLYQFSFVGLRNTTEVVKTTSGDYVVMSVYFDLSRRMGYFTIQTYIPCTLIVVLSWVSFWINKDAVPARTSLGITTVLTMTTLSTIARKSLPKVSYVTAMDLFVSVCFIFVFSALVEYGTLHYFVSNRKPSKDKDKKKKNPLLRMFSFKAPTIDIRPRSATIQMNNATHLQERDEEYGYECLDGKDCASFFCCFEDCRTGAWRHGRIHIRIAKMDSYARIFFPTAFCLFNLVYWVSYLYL
T1 sequence (P28472 whole entry): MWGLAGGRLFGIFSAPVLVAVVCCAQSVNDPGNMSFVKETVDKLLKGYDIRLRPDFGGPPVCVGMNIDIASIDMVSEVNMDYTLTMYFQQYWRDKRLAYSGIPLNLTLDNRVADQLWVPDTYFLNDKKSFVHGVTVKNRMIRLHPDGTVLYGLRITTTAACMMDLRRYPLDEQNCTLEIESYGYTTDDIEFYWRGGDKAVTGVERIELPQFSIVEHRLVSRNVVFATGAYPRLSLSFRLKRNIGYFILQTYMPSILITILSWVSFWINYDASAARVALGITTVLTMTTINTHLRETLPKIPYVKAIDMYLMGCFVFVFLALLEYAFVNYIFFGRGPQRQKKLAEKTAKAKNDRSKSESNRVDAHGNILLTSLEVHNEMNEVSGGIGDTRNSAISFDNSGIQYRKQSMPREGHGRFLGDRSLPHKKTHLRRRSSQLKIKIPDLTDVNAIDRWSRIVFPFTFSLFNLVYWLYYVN
T1 sequence (P47869 whole entry): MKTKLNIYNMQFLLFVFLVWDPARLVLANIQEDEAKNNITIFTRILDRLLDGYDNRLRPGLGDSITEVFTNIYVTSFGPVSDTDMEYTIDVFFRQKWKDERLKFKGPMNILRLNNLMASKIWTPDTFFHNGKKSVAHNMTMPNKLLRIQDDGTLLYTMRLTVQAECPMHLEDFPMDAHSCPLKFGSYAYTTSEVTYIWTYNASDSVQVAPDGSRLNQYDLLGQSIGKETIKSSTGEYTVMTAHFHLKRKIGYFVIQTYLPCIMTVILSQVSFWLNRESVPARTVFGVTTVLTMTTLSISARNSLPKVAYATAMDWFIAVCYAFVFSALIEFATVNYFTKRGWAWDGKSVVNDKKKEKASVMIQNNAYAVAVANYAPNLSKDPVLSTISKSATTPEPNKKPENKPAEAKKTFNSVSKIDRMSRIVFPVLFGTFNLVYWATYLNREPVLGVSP

[2] = target: T2, GABA-A receptor; alpha-1/beta-3/gamma-2 (Homo sapiens, UniProt P14867+P18507+P28472); assay: Displacement of [3H]flumazenil from human recombinant alpha1-beta3-gamma2 GABAA receptors expressed in mouse LTK- cells incubated for 1 hr by liquid scintillation counter analysis; format: cell-based
T2 sequence (P14867 whole entry): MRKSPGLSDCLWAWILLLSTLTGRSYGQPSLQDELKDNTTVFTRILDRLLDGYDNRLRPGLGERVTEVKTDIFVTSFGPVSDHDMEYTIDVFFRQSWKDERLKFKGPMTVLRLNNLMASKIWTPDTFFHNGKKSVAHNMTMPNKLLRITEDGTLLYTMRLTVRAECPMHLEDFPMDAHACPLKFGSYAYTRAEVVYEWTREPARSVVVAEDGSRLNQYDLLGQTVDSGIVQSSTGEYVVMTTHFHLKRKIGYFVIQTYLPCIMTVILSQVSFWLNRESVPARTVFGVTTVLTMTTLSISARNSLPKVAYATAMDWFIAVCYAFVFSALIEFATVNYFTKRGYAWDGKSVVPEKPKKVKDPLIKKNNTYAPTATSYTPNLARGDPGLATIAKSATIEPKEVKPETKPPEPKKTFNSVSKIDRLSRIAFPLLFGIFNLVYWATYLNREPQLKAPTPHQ
T2 sequence (P18507 whole entry): T1 sequence (P18507 whole entry)
T2 sequence (P28472 whole entry): T1 sequence (P28472 whole entry)

[3] = Displacement of [3H]flumazenil from CBR at low affinity site extracted from cerebral cortex of CD-1 albino mouse incubated for 90 mins by liquid scintillation counter analysis; format: tissue-based
[4] = Displacement of [3H]flumazenil from CBR at high affinity site extracted from cerebral cortex of CD-1 albino mouse incubated for 90 mins by liquid scintillation counter analysis; format: tissue-based
[5] = system: Mus musculus; assay: Anxiolytic activity in CD-1 mouse assessed as time in light at 20 mg/kg treated for 30 mins by light/dark box test (reference value: 112.1 +/- 10.9 sec); format: functional; settings: 0.5 h
[6] = system: Mus musculus; assay: Myorelaxant effect in CD-1 mouse assessed as time taken for myorelaxation at 20 mg/kg, po measured after 30 mins post-dose by rota rod test (reference value: 1.6 +/- 0.0 min); format: functional; settings: 0.5 h
[7] = system: Mus musculus; assay: Anticonvulsant activity in PTZ-treated CD-1 mouse assessed as time taken for convulsion latency at 20 mg/kg pretreated for 30 mins followed by PTZ treatment measured for 30 mins post-PTZ dose (reference value: 19.3 +/- 4.1 min); format: functional; settings: 0.5 h
[8] = system: Mus musculus; assay: Myorelaxant effect in CD-1 mouse assessed as time taken for myorelaxation at 20 mg/kg, po measured immediately post-dose by rota rod test (reference value: 5.0 +/- 0.4 min); format: functional
[9] = system: Mus musculus; assay: Anticonvulsant activity in PTZ-treated CD-1 mouse assessed as time taken for death latency at 20 mg/kg pretreated for 30 mins followed by PTZ treatment measured for 30 mins post-PTZ dose (reference value: 28.4 +/- 4.8 min); format: functional; settings: 0.5 h
[10] = system: Mus musculus; assay: Myorelaxant effect in CD-1 mouse assessed as time taken for myorelaxation at 20 mg/kg, po measured after 45 mins post-dose by rota rod test (reference value: 1.0 +/- 0.2 min); format: functional; settings: 0.75 h
[11] = system: Mus musculus; assay: Improvement in learning and memory in CD-1 mouse assessed as difference in time taken for training and retention session at 20 mg/kg, po by passive avoidance test (reference value: 76.8 sec); format: functional
[12] = system: Mus musculus; assay: Improvement in learning and memory in CD-1 mouse assessed as time taken for training session at 20 mg/kg, po by passive avoidance test (reference value: 15.6 +/- 3.2 sec); format: functional
[13] = system: Mus musculus; assay: Myorelaxant effect in CD-1 mouse assessed as time taken for myorelaxation at 20 mg/kg, po measured after 60 mins post-dose by rota rod test (reference value: 0.2 +/- 0.3 min); format: functional; settings: 1 h
[14] = system: Mus musculus; assay: Improvement in learning and memory in CD-1 mouse assessed as time taken for retention session at 20 mg/kg, po by passive avoidance test (reference value: 15.6 +/- 3.2 sec); format: functional
[15] = system: Mus musculus; assay: Anxiolytic activity in CD-1 mouse assessed as time in light at 10 mg/kg treated for 30 mins by light/dark box test (reference value: 112.1 +/- 10.9 sec); format: functional; settings: 0.5 h
[16] = system: Mus musculus; assay: Myorelaxant effect in CD-1 mouse assessed as time taken for myorelaxation at 20 mg/kg, po measured after 15 mins post-dose by rota rod test (reference value: 3.1 +/- 0.4 min); format: functional; settings: 0.25 h
[17] = Displacement of [3H]flumazenil from CBR extracted from cerebral cortex of CD-1 albino mouse incubated for 90 mins by liquid scintillation counter analysis; format: cell membranes, Membranes
[18] = system: Mus musculus; assay: Anxiolytic activity in CD-1 mouse assessed as time in light at 1 mg/kg treated for 30 mins by light/dark box test (reference value: 112.1 +/- 10.9 sec); format: functional; settings: 0.5 h
[19] = system: Mus musculus; assay: Improvement in learning and memory in CD-1 mouse assessed as difference in time taken for training and retention session at 1 mg/kg, po by passive avoidance test (reference value: 76.8 sec); format: functional
[20] = system: Mus musculus; assay: Improvement in learning and memory in CD-1 mouse assessed as time taken for retention session at 1 mg/kg, po by passive avoidance test (reference value: 15.6 +/- 3.2 sec); format: functional
[21] = system: Mus musculus; assay: Improvement in learning and memory in CD-1 mouse assessed as time taken for training session at 1 mg/kg, po by passive avoidance test (reference value: 15.6 +/- 3.2 sec); format: functional

With `CCOC(=O)c1ncn2c1c(C)c(C(=O)NCCCCCCCNC(=O)OC(C)(C)C)c1ccccc12` the Ki [1] was 33 nM, the Ki [2] was 31 nM and the Ki [3] was 6.4 nM. For the same compound, the Ki [4] was 61 nM.
With `CCOC(=O)c1ncn2c1c(C)c(C(=O)NCCCCCCNC(=O)OC(C)(C)C)c1ccccc12` the Time [5] was 144.7 s, the Time [6] was 1.8 min and the Ki [1] was 14 nM. The Time [7] was 24.2 min, the Time [8] was 5.1 min and the Ki [2] was 10 nM. For the same compound, the Time [9] was 43.3 min, the Time [10] was 0.8 min and the Time [11] was 77.4 s. For the same compound, the Time [12] was 18.1 s, the Time [13] was 0.2 min and the Time [14] was 95.5 s. For the same compound, the Time [15] was 109.7 s, the Time [16] was 3.3 min and the Ki [3] was 35 nM. For the same compound, the Ki [4] was 65 nM.
`CCOC(=O)c1ncn2c1c(C)c(C(=O)NCCCCCCCCNC(=O)c1c(C)c3c(C(=O)OCC)ncn3c3ccccc13)c1ccccc12` gave a Time [5] of 173.4 s, a Time [6] of 1.4 min and a Ki [1] of 56 nM. For the same compound, the Time [7] was 20.7 min, the Time [8] was 4.5 min and the Ki [2] was 64 nM. For the same compound, the Time [9] was 41.8 min, the Time [10] was 0.7 min and the Time [11] was 77 s. For the same compound, the Time [12] was 14.8 s, the Time [13] was 0.2 min and the Time [14] was 91.8 s. The Time [15] was 96.7 s, the Time [16] was 3 min and the Ki [3] was 52 nM. For the same compound, the Ki [4] was 0.05 nM.
With `CCOC(=O)c1ncn2c1c(C)c(C(=O)NCCCCCCNC(=O)c1c(C)c3c(C(=O)OCC)ncn3c3ccccc13)c1ccccc12` the Time [5] was 166.2 s, the Time [6] was 1.9 min and the Ki [1] was 45 nM. For the same compound, the Time [7] was 22.8 min, the Time [8] was 4.9 min and the Ki [2] was 74 nM. It also gave a Time [9] of 40.5 min, a Time [10] of 0.7 min and a Time [11] of 70.8 s. It also gave a Time [12] of 15.3 s, a Time [13] of 0.1 min and a Time [14] of 86.1 s. It also gave a Time [15] of 114.3 s, a Time [16] of 3.2 min and a Ki [3] of 60 nM. The Ki [4] was 0.022 nM.
For `CCOC(=O)c1ncn2c1c(C)c(C(=O)NCCOCCOCCNC(=O)c1c(C)c3c(C(=O)OCC)ncn3c3ccccc13)c1ccccc12`, the Ki [17] was 18 nM, the Ki [1] was 100 nM and the Ki [2] was 129 nM.
With `CCOC(=O)c1ncn2c1c(C)c(C(=O)NCCOCCOCCOCCOCCOCCOCCOCCNC(=O)OC(C)(C)C)c1ccccc12` the Ki [17] was 0.66 nM, the Ki [1] was 63 nM and the Ki [2] was 42 nM.
With `CCOC(=O)c1ncn2c1c(C)c(C(=O)NCCCCCCCNC(=O)c1c(C)c3c(C(=O)OCC)ncn3c3ccccc13)c1ccccc12` the Ki [1] was 74 nM, the Ki [2] was 74 nM and the Ki [3] was 12 nM. It also gave a Ki [4] of 0.001 nM.
Compound `CCOC(=O)c1ncn2c1c(C)c(C(=O)NCCCCCCCCNC(=O)OC(C)(C)C)c1ccccc12` has a Ki [1] of 42 nM, a Ki [2] of 39 nM and a Ki [3] of 51 nM. It also gave a Ki [4] of 0.005 nM.
For `CCOC(=O)c1ncn2c1c(C)c(C(=O)NCCOCCOCCOCCOCCOCCOCCOCCNC(=O)c1c(C)c3c(C(=O)OCC)ncn3c3ccccc13)c1ccccc12`, the Ki [17] was 41 nM, the Ki [1] was 210 nM and the Ki [2] was 245 nM.
`CCOC(=O)c1ncn2c1c(C)c(C(=O)NCCOCCOCCNC(=O)OC(C)(C)C)c1ccccc12` gave a Ki [17] of 12 nM, a Ki [1] of 400 nM and a Ki [2] of 615 nM.
In the case of `CN1C(=O)CN=C(c2ccccc2)c2cc(Cl)ccc21` [DIAZEPAM], the Time [18] is reported as 174.9 s, the Time [19] is reported as 43.6 s and the Time [20] is reported as 61 s. For the same compound, the Time [21] was 17.4 s and the Ki [3] was 3.5 nM.
Work on `CCOC(=O)c1ncn2c1CN(C)C(=O)c1cc(F)ccc1-2` [FLUMAZENIL] yielded a Ki [3] of 1.3 nM.
